# Measurements published in patent US5264429A, “2-spirocyclopropyl cephalosporin sulfone derivatives” (SynPhar Laboratories, Inc., priority 1991, dated 1993).
# Read-outs that look alike come from different tables or passages of the source.
# Key:
# cathepsin D = molecular target: T1, cathepsin D (Bos taurus, UniProt P80209); assay: Inhibition of cathepsin D (CTD); assay type: biochemical, bovine; details: cathepsin D, pH 3.2, 10 minute preincubation, 30° C.; read-out: IC50 CTD
# T1 construct: from tissue; host or cells: bovine spleen
# T1 sequence (P80209 45-390): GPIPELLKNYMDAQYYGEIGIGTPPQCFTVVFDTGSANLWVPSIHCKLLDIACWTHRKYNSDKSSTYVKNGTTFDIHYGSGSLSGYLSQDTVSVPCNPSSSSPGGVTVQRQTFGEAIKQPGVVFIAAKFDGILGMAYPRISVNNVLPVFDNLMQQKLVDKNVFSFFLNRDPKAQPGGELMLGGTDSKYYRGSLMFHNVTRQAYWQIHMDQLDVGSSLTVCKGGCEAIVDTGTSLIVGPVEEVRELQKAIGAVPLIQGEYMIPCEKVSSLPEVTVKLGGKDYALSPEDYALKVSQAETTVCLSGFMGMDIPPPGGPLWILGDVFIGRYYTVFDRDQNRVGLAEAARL
# Procedure: Except for Cathepsin D, the enzyme activities were determined by monitoring the increase in absorbance at 410 nm caused by the hydrolysis of chromogenic substrates. The activity of Cathepsin D was determined by monitoring the absorbance of 5% trichloroacetic acid-soluble material at 280 nm. Inhibition of enzymes by the compounds described were determined after a 10 minute preincubation with enzymes in reaction mixtures minus substrate. Reactions were initiated by the addition of substrates. […] Cathepsin D was used at the concentration that produced approximately 0.15 O.D. increase per 20 min at 280 nm under the standard conditions. All other proteases were assayed at the concentrations that produced approximately 0.1 O.D. change per minute at 410 nm under the standard conditions.
# plasmin = molecular target: T2, plasmin (Homo sapiens, UniProt P00747); assay: Inhibition of plasmin (PTH); assay type: biochemical; details: pH 8.9, 10 minute preincubation, 22° C.
# T2 construct: from tissue; host or cells: human plasma
# T2 sequence (P00747 581-810 limits assumed): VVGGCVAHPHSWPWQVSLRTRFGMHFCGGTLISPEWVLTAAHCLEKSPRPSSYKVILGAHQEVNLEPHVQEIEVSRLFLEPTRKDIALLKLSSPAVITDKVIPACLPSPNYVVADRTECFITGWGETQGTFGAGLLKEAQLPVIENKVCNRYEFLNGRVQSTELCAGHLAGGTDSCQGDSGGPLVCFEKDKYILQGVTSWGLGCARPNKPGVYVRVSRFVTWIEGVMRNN
# T2 sequence (P00747 97-580 partner limits assumed): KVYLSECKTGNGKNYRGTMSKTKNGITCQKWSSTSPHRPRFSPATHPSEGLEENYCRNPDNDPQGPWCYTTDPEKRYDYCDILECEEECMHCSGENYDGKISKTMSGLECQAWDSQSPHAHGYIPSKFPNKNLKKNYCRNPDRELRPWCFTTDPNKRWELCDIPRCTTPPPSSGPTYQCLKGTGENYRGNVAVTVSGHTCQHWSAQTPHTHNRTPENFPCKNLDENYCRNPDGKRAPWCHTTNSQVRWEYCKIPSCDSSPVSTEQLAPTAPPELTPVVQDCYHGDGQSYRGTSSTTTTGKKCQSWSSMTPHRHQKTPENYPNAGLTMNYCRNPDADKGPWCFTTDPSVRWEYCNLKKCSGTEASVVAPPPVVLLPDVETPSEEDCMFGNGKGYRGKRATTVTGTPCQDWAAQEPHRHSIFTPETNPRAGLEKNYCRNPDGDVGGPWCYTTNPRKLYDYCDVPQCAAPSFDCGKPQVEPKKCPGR
# Procedure: (§1) HLE, CTG, PPE and CTD were tested at 30° C. and the others were
# (§2) TRY, trypsin; THR, thrombin; PTH, plasmin; CTC, cathepsin C; ATM,
# Enzyme: Purified plasmin from human plasma Substrate: Tosyl-glyclyl-L-prolyl-L-lysine-pNA acetate
# Reaction mixture: 50 mM Tris-HCl buffer (pH 8.9), 500 mM NaCl, 5% DMSO, 0.5 mM Substrate.
# (§3) Except for Cathepsin D, the enzyme activities were determined by monitoring the increase in absorbance at 410 nm caused by the hydrolysis of chromogenic substrates. The activity of Cathepsin D was determined by monitoring the absorbance of 5% trichloroacetic acid-soluble material at 280 nm.
# (§4) Inhibition of enzymes by the compounds described were determined after a 10 minute preincubation with enzymes in reaction mixtures minus substrate. Reactions were initiated by the addition of substrates. The concentration used for assays were porcine pancreatic elastase at 240 nM and human Cathepsin G at 50 nM. Cathepsin D was used at the concentration that produced approximately 0.15 O.D. increase per 20 min at 280 nm under the standard conditions. All other proteases were assayed at the concentrations that produced approximately 0.1 O.D. change per minute at 410 nm under the standard conditions.
# aminopeptidase M = molecular target: T3, aminopeptidase M (Sus scrofa, UniProt P15145); assay: Inhibition of aminopeptidase M (ATM); assay type: biochemical, porcine
# T3 construct: from tissue; host or cells: porcine kidney
# T3 sequence (P15145 1-963): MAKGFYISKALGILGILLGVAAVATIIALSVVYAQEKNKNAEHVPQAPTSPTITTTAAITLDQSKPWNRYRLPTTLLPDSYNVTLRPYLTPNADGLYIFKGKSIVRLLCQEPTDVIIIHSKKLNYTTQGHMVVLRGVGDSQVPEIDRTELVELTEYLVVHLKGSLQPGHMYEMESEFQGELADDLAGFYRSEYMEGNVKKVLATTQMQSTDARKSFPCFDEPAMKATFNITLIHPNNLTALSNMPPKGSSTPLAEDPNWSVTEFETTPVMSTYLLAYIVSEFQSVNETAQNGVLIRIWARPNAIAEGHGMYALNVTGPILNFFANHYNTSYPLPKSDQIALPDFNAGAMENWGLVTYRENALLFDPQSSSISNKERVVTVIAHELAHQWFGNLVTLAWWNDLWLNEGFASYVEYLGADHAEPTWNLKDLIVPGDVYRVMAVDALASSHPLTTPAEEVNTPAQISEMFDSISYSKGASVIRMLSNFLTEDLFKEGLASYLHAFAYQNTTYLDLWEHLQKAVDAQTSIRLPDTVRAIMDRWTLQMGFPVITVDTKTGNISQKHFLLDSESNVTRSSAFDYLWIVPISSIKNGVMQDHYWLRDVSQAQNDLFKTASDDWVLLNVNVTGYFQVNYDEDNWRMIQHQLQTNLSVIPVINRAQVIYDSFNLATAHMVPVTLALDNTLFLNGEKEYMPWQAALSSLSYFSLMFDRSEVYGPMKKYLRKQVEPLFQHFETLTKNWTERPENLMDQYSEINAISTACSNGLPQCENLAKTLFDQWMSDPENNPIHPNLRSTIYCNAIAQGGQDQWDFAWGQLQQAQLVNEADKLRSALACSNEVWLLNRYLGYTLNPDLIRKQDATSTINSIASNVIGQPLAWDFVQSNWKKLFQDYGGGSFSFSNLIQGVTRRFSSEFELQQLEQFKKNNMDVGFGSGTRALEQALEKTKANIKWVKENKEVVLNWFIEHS
# Procedure: as §1, §2
# (§5) aminopeptidase M; CTG, cathespin G; CTD, cathespin D; PPE, porcine
# Enzyme: Purified aminopeptidase M from porcine kidney
# Reaction Mixture: 50 mM Tricine buffer (pH 7.5), 500 mM NaCl, 10% DMSO, 2.0 mM Substrate.
# as §3, §4
# [1] = molecular target: T4, porcine pancreatic elastase (Sus scrofa, UniProt P00772); assay: Inhibition of porcine pancreatic elastase (PPE); assay type: biochemical; details: porcine pancreatic elastase 240 nM, pH 8.9, 10 minute preincubation, 30° C.
# T4 construct: from tissue; host or cells: porcine pancreas
# T4 sequence (P00772 27-266): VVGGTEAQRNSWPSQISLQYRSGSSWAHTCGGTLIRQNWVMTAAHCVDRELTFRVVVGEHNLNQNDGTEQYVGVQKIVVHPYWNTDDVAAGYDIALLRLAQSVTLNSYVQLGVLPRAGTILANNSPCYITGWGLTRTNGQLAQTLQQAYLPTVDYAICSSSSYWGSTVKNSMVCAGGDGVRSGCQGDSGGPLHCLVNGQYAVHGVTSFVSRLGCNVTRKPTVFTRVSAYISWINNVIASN
# Procedure: as §1, §5
# Porcine pancreatic Elastase (PPE)
# Enzyme: Purified elastase from porcine pancreas
# Substrate: MeO-succinyl-L-alanyl-L-alanyl-L-prolyl-L-valine-pNA
# Reaction mixture: 50 mM Tris[Tris(hydroxymethyl) aminomethane]. HCl buffer (pH 8.9), 500 mM NaCl, 10% DMSO, 1.4 mM Substrate.
# as §3, §4
# cathepsin C = molecular target: T5, cathepsin C (Bos taurus, UniProt Q3ZCJ8); assay: Inhibition of cathepsin C (CTC); assay type: biochemical, bovine
# T5 construct: from tissue; host or cells: bovine spleen
# T5 sequence (Q3ZCJ8 231-394 limits assumed): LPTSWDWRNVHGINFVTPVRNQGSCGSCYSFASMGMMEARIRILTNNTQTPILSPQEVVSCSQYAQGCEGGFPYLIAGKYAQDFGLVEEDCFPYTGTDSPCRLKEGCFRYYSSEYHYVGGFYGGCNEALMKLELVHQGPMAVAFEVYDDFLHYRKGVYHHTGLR
# T5 sequence (Q3ZCJ8 395-463 limits assumed): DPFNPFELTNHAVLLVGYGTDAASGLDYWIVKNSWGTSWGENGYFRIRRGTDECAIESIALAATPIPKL
# T5 sequence (Q3ZCJ8 25-134 limits assumed): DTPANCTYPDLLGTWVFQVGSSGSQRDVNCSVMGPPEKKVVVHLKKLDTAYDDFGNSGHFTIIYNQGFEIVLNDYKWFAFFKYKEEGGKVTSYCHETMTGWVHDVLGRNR
# Procedure: as §1, §2
# Enzyme: Purified cathepsin C from bovine spleen
# Substrate: Glycyl-L-phenylalanine-pNA
# Reaction mixture: 50 mM Citrate buffer (pH 5.4), 5 mM B-Mercaptoethanol, 150 mM NaCl, 10% DMSO, 20 mM Substrate.
# as §3, §4
# trypsin = molecular target: T6, trypsin (Bos taurus, UniProt P00760); assay: Inhibition of trypsin (TRY); assay type: biochemical, bovine
# T6 construct: from tissue; host or cells: bovine pancreas
# T6 sequence (P00760 24-246): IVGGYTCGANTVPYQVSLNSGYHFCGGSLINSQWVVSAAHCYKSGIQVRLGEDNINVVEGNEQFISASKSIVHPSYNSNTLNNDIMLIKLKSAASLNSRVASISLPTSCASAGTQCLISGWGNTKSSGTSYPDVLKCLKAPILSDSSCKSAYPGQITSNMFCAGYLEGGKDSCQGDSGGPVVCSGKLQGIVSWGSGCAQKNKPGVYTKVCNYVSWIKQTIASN
# Procedure: Enzyme: Purified trypsin from bovine pancreas
# Substrate: Bz-L-arginine-p-NA
# Reaction mixture: 50 mM Tricine[N-Tris(hydroxymethyl)methylglycine]-NaOH buffer (pH 8.8) 150 mM NaCl, 10% DMSO 1.0 mM Substrate.
# Inhibition of enzymes by the compounds described were determined after a 10 minute preincubation with enzymes in reaction mixtures minus substrate. Reactions were initiated by the addition of substrates. […] All other proteases were assayed at the concentrations that produced approximately 0.1 O.D. change per minute at 410 nm under the standard conditions.
# [2] = aminopeptidase M, pH 7.5, 10 minute preincubation, 22° C., read-out: IC50 ATM
# [3] = cathepsin C, pH 5.4, 10 minute preincubation, 22° C., read-out: IC50 CTC
# [4] = trypsin, pH 8.8, 10 minute preincubation, 22° C., read-out: IC50 TRY (converted)
Structure (SMILES),IC50 (cathepsin D) [µM],IC50 (plasmin) [µM],IC50 (aminopeptidase M; [2]) [µM],IC50 [1] [µM],IC50 (cathepsin C; [3]) [µM],IC50 (trypsin; [4]) [µM],IC50 (aminopeptidase M) [µM],IC50 (cathepsin C) [µM],IC50 (trypsin) [µM]
"CC1=C(C(=O)OC(c2ccccc2)c2ccccc2)N2C(=O)[C@H](Cl)[C@H]2S(=O)(=O)C12CC2(c1ccccc1)c1ccccc1 (single isomer, unassigned) [Example 1, Benzhydryl 7α-chloro-2-spiro(2',2'-diphenyl) cyclopropyl-3-methyl-3-cephem-4-carboxylate-1,1-dioxide]",> 50,3.61,> 60,0.0328,> 60,> 60,,,
"CC1=C(C(=O)OC(c2ccccc2)c2ccccc2)N2C(=O)[C@H](Br)[C@H]2S(=O)(=O)C12CC2(c1ccccc1)c1ccccc1 (single isomer, unassigned) [Example 2, benzhydryl 7α-bromo-2-spiro(2', 2'-diphenyl) cyclopropyl-3-methyl-3-cephem-4-carboxylate-1,1-dioxide]",> 50,3.21,> 40,0.0183,> 38.5,> 37,,,
"CC1=C(C(=O)OC(c2ccccc2)c2ccccc2)N2C(=O)[C@H](Br)[C@H]2S(=O)(=O)C12CC2(c1ccc(Cl)cc1)c1ccc(Cl)cc1 (single isomer, unassigned) [Example 12, Benzhydryl 7α-bromo-2-spiro [2',2'-(4',4'-dichloro)diphenyl]cyclopropyl-3-methyl-3-cephem-4-carboxylate-1,1-dioxide]",> 46.2,2.21,,0.235,,,> 55.3,> 55.3,55.3
"CC1=C(C(=O)OC(c2ccccc2)c2ccccc2)N2C(=O)[C@H](Br)[C@H]2S(=O)(=O)C12CC2(c1ccc(F)cc1)c1ccc(F)cc1 (single isomer, unassigned) [Example 13, Benzhydryl 7α-bromo-2-spiro[2',2'-(4',4'-difluoro)diphenyl] cyclopropyl-3-methyl-3-cephem-4-carboxylate-1,1-dioxide]",> 50,3.19,,0.0637,,,> 40,> 40,> 40
"CC1=C(C(=O)OC(C)(C)C)N2C(=O)[C@H](Br)[C@H]2S(=O)(=O)C12CC2(c1ccccc1)c1ccccc1 (stereo partly drawn) [Example 3, t-Butyl 7α-bromo-2-spiro(2',2'-diphenyl) cyclopropyl-3-methyl-3-cephem 4-carboxylate-1,1-dioxide]",> 50,5.51,> 40,0.0937,> 40,> 40,,,
"CC1=C(C(=O)N2CCCC2)N2C(=O)[C@H](Br)[C@H]2S(=O)(=O)C12CC2(c1ccccc1)c1ccccc1 (stereo partly drawn) [Example 6, 7α Bromo-2-spiro(2',2'-diphenyl)cyclopropyl-3-methyl-3-cephem-4-pyrrolidine carboxamide-1,1-dioxide]",> 9.77,> 39,> 9.77,0.203,> 9.77,> 39,,,
"CCO[C@H]1C(=O)N2C(C(=O)OCC(Cl)(Cl)Cl)=C(C)C3(CC3(c3ccccc3)c3ccccc3)S(=O)(=O)[C@H]12 (stereo partly drawn) [Example 7, 2,2,2-Trichloroethyl-7α-ethoxy-2-spiro(2',2'-diphenyl)cyclo-propyl-3-methyl-3-cephem-4-carboxylate-1,1-dioxide]",> 10,> 10,> 10,0.0161,> 10,> 10,,,
"CO[C@H]1C(=O)N2C(C(=O)OCC(Cl)(Cl)Cl)=C(C)C3(CC3(c3ccccc3)c3ccccc3)S(=O)(=O)[C@H]12 (stereo partly drawn) [Example 8, 2,2,2-Trichloroethyl-7α-methoxy-2-spiro(2',2'-diphenyl) cyclopropyl-3-methyl-3-cephem-4-carboxylate-1,1-dioxide]",> 9.98,1.3,,0.0228,,0.648,> 9.98,> 9.98,
"CO[C@H]1C(=O)N2C(C(=O)OC(c3ccccc3)c3ccccc3)=C(C)C3(CC3(c3ccccc3)c3ccccc3)S(=O)(=O)[C@H]12 (stereo partly drawn) [Example 9, Benzhydryl 7α-methoxy-2-spiro (2',2'-diphenyl) cyclopropyl-3-methyl-3-cephem-4-carboxylate-1,1-dioxide]",> 8.35,8.8,,0.0545,,,> 10,> 10,> 10
"CO[C@H]1C(=O)N2C(C(=O)N3CCCC3)=C(C)C3(CC3(c3ccccc3)c3ccccc3)S(=O)(=O)[C@H]12 (stereo partly drawn) [Example 10, 7α-Methoxy-2-spiro (2',2'-diphenyl)cyclopropyl-3-methyl-3-cephem-4-pyrrolidine carboxamide-1,1-dioxide]",> 9.97,> 40,,0.0832,> 9.99,> 35.9,> 40,,
"CCOC(=O)C1CC12C(C)=C(C(=O)OC(c1ccccc1)c1ccccc1)N1C(=O)[C@H](Br)[C@H]1S2(=O)=O (stereo partly drawn) [Example 13 (1), Benzhydryl 7α-bromo-2-spiro(2'-ethoxycarbonyl)cyclopropyl-3-methyl-3-cephem-4-carboxylate-1,1-dioxide]",> 50,11,,0.0313,,0.58,> 40,> 40,
"CC1=C(C(=O)OC(c2ccccc2)c2ccccc2)N2C(=O)[C@H](Br)[C@H]2S(=O)(=O)C12CC2(C)c1ccccc1 (stereo partly drawn) [Example 13 (2), Benzhydryl 7α-bromo-2-spiro(2'-phenyl-2'-methyl) cyclopropyl-3-methyl-3-cephem-4-carboxylate-1,1-dioxide]",> 46.6,5.5,,0.0557,,0.147,> 40,> 40,
